Laboratory results from PubChem BioAssay (NCI).
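Cultured in 96-well plates, cells were exposed to test compound for 48 hours across five concentrations. At the GI50, growth is halved. TGI marks complete inhibition of growth.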 *1 amine or outer side, *2 acyl side, *3 side chain or, on linkers, in order; H or OH if unused. Where a SMILES comes first, the peptide text is derived from it. Bridges are numbered along the chain shown (N, C = ends). Roman numbers before positions name the chains, in order. [ ]: non-standard residue; d: D form. Actinocin(9to1) = Cc1c2oc3c(C)ccc(C(=O)[*:1])c3nc-2c(C(=O)[*:2])c(N)c1=O; NMeH = CN[CH](Cc1c[nH]cn1)C(=O)O; Sar = CNCC(=O)O

Tests used:
Test in all cases: NCI anticancer screen, dose series, 48 h
[1] = tested on: 786-0 renal
[2] = tested on: SF-295 CNS
[3] = tested on: TK-10 renal
[4] = tested on: OVCAR-3 ovarian
[5] = tested on: ACHN renal
[6] = tested on: DU-145 prostate
[7] = tested on: UACC-257 melanoma
[8] = tested on: HCC-2998 colon
[9] = tested on: LOX IMVI melanoma
[10] = tested on: T-47D breast

Compound	TGI [1] [µM]	TGI [2] [µM]	TGI [3] [µM]	TGI [4] [µM]	TGI [5] [µM]	TGI [6] [µM]	TGI [7] [µM]	TGI [8] [µM]	TGI [9] [µM]	TGI [10] [µM]	GI50 [10] [µM]	GI50 [3] [µM]	GI50 [7] [µM]	GI50 [8] [µM]
CCN1C/C(=C\c2ccc(Cl)cc2)c2nc(N)c(C#N)c(-c3ccc(Cl)cc3)c2C1	> 100	> 100	> 100	> 100	> 100	> 100	> 100	> 100	> 100					
CC1CC[C@@]2(OC1)O[C@H]1[C@H](O)[C@H]3[C@@H]4CC[C@H]5C[C@@H](OC6OC(CO)C(OC7OC(CO)C(O)C(OC8OCC(O)C(O)C8O)C7OC7OC(CO)C(O)C(O)C7OC7OC(CO)C(O)C(O)C7O)C(O)C6O)[C@H](O)C[C@]5(C)[C@H]4CC[C@]3(C)[C@H]1[C@@H]2C (stereo partly drawn)	9.37		> 10	> 10	> 10	> 10	> 10	> 10	> 10	> 10				
N#C/C(=C/C=C/c1ccco1)C(N)=O	> 10	> 10	> 10	> 10	> 10	> 10		> 10	> 10	> 10				
CN(Cc1cnc2nc(N)nc(N)c2n1)c1ccc(C(=O)NC23CC4CC(CC(C4)C2)C3)cc1	57.1	21.1	30.8	30.5	11.5	38.1	25.6		53	39				
N#CC1(C#N)C(C#N)(C#N)C1(C#N)C(N)=O	> 100	> 100	> 100		> 100	> 100	> 100	> 100	> 100	> 100				
O=C1CCCNn2c(nc3ncccc3c2=O)N1	> 100	> 100	> 100	> 100	> 100		> 100		> 100	> 100				
Cc1c2oc3c(C)ccc(C(=O)NC4C(=O)NC(C(C)C)C(=O)N5CCCC5C(=O)N(C)CC(=O)N(C)C(Cc5cnc[nH]5)C(=O)OC4C)c3nc-2c(C(=O)NC2C(=O)NC(C(C)C)C(=O)N3CCCC3C(=O)N(C)CC(=O)N(C)C(Cc3cnc[nH]3)C(=O)OC2C)c(N)c1=O (stereo not drawn) (I: TVP[Sar][NMeH] / II: TVP[Sar][NMeH]; ester I:1-I:C, II:1-II:C; linker I:N-II:N via Actinocin(9to1); configuration not given here)	> 100	> 100	> 100	> 100	> 100		> 100	> 100	> 100	> 100				
COc1ccccc1-n1c(=O)n(C)c(=O)n1C(C)(C)C	> 100		> 100	> 100		> 100	> 100	> 100	> 100	> 100				
CNc1nnc(CCCCCCCCc2nnc(NC)o2)o1	47	> 100	> 100	44.9	> 100	> 100	> 100		38.5					
Cc1ccc(S(=O)(=O)NC(=O)NC(Cc2ccc(O)cc2)C(=O)O)cc1 (stereo not drawn)	> 100	> 100	> 100			> 100	> 100		> 100	> 100				
CC1CC/C(=C\c2ccc(F)cc2)C2=C1C(c1ccc(F)cc1)N1C(=O)CSC1=N2 (stereo not drawn)	> 100	> 100	> 100	> 100	> 100	> 100	> 100		> 100	> 100				
Cc1c(CNc2ccc(C(=O)NC(CCCNC(=O)c3ccccc3C(=O)O)C(=O)O)cc2)cnc2nc(N)nc(N)c12 (stereo not drawn)	> 100			> 100		> 100	> 100				> 100	> 100	> 100	0.167
C#CC(O)(c1nc2ccccc2s1)c1nc2ccccc2s1	38.9	76.8	> 100	40.8	83.2	> 100	88.5		35.7	88.9				
O=C(COc1ccc(OCC(=O)N2C(=O)CC(=O)N(c3ccc(Cl)cc3)C2=S)cc1)N1C(=O)CC(=O)N(c2ccc(Cl)cc2)C1=S	80.1	> 100	> 100		> 100	> 100	> 100	> 100						
C#CC[C@@]12CC(=O)C[C@@H]1CCC1(C2)OCCO1 (tested in a mixture with another compound)		> 100		> 100			> 100	> 100	> 100					
C(/C=N/NC1=NCCCCN1)=N\NC1=NCCCCN1	> 100	> 100	> 100	> 100	> 100		> 100	> 100	> 100	> 100				
CSC(SC)=C(C#N)C(=O)Nc1cccc(Cl)c1	> 100	> 100	> 100		> 100		> 100	> 100	> 100					
ClC(Cl)(Cl)C1CCOC1n1nnc2ccccc21 (stereo not drawn)	> 100	> 100	> 100	> 100		> 100	> 100	> 100		> 100				
O=C1c2cc(Cc3ccccc3)c(=O)c(Cc3ccccc3)cc2C(=O)c2cc(Cc3ccccc3)c(=O)c(Cc3ccccc3)cc21	> 100	> 100	> 100	> 100	> 100	> 100	> 100	> 100	> 100					
Cn1cccc1-c1ccc(-c2ccc(CO)[se]2)[se]1	> 100	> 95.8	> 100	> 100	> 100	70.1		> 68.4	> 70.6	> 83.7				
COc1ccc(C2C3=C(N=C4SC(C(C)=O)=C(C)N42)c2ccccc2CC3)cc1 (stereo not drawn)	> 100	> 100		> 100	> 100	> 100	> 100	> 100	> 100	> 100				
Cc1cc2[nH]c3c(C#N)c(-c4ccccc4)c(N=Nc4ccc(F)cc4)c(=O)n3c2cc1C	> 100	> 100	> 100	39.8	> 100		> 100	> 100	> 100	> 100				
